Measurements from the kinase profiling compilation of Christmann-Franck et al. (2016).

Key:
Conditions in all cases: compound 10.0 µM
NEK7 (human) = NEK7 (human) (UniProt Q8TDX7)
EPHB1 (human) = EPHB1 (human) (UniProt P54762)
MARK3 (human) = MARK3 (human) (UniProt P27448)
MAPKAPK5 (human) = MAPKAPK5 (human) (UniProt Q8IW41)
[1] = tested on: EGFR (human), P00533 [752-759 del]
[2] = tested on: EGFR (human), P00533 [L861Q]
RPS6KA5 KD2 (human) = RPS6KA5 KD2 (human) (UniProt O75582)
[3] = tested on: PIK3CA (human), P42336 [E545K]
[4] = tested on: EGFR (human), P00533 [L858R]
[5] = tested on: PIK3CA (human), P42336 [I800L]
PIK3CA (human) = PIK3CA (human) (UniProt P42336)
[6] = tested on: PIK3CA (human), P42336 [Q546K]
KDR (human) = KDR (human) (UniProt P35968)
SRC (human) = SRC (human) (UniProt P12931)
[7] = tested on: PIK3CA (human), P42336 [H1047Y]
[8] = tested on: EGFR (human), P00533 [P753S; 747-752 del]
[9] = tested on: ABL1 (human), P00519 [E255K]
[10] = tested on: EGFR (human), P00533 [G719C]
[11] = tested on: EGFR (human), P00533 [746-750 del]
FRK (human) = FRK (human) (UniProt P42685)
Sequence of FRK (human) (P42685 whole entry, looked up): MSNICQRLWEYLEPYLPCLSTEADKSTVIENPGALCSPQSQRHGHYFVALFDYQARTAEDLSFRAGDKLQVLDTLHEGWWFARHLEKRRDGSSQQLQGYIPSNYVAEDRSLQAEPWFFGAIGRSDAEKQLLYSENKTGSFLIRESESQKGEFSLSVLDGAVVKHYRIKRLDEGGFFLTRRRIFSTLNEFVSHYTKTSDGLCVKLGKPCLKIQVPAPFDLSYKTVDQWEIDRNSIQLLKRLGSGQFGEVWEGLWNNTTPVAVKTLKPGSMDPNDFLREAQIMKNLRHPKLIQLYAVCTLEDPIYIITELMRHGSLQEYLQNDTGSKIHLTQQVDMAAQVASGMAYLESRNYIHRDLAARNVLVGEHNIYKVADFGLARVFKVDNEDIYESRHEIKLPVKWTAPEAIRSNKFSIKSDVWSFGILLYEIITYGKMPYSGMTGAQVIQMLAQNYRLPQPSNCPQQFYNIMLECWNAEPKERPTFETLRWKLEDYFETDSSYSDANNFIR

[12] = tested on: EGFR (human), P00533 [747-751 del / S ins]
HIPK2 (human) = HIPK2 (human) (UniProt Q9H2X6)
NTRK3 (human) = NTRK3 (human) (UniProt Q16288)
Sequence of NTRK3 (human) (Q16288 whole entry, looked up): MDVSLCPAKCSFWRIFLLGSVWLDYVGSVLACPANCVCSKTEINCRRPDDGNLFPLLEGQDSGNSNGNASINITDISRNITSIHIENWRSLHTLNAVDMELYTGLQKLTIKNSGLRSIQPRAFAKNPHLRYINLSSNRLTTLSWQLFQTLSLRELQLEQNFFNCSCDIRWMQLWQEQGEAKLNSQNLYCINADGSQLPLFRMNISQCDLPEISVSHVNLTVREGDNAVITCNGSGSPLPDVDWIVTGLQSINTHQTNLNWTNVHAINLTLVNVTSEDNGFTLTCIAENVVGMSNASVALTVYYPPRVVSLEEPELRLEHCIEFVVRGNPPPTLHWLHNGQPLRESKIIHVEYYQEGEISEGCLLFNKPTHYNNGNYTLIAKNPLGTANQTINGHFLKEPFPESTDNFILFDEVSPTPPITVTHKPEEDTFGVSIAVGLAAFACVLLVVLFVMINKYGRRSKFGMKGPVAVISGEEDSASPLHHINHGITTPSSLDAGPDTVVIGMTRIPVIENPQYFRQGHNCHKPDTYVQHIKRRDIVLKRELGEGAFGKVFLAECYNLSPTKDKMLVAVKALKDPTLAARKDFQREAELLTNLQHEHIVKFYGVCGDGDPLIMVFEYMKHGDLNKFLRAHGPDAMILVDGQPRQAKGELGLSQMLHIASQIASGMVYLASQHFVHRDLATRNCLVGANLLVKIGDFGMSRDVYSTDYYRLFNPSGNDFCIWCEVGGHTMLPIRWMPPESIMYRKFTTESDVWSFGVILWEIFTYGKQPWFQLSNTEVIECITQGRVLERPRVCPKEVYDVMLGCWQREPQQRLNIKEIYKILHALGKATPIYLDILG

[13] = tested on: PIK3CA (human), P42336 [C420R]
[14] = tested on: EGFR (human), P00533 [T790M]
MYLK3 (human) = MYLK3 (human) (UniProt Q32MK0)
CLK2 (human) = CLK2 (human) (UniProt P49760)
PAK2 (human) = PAK2 (human) (UniProt Q13177)
[15] = tested on: ABL1 (human), P00519 [M351T]
EPHB4 (human) = EPHB4 (human) (UniProt P54760)
Sequence of EPHB4 (human) (P54760 whole entry, looked up): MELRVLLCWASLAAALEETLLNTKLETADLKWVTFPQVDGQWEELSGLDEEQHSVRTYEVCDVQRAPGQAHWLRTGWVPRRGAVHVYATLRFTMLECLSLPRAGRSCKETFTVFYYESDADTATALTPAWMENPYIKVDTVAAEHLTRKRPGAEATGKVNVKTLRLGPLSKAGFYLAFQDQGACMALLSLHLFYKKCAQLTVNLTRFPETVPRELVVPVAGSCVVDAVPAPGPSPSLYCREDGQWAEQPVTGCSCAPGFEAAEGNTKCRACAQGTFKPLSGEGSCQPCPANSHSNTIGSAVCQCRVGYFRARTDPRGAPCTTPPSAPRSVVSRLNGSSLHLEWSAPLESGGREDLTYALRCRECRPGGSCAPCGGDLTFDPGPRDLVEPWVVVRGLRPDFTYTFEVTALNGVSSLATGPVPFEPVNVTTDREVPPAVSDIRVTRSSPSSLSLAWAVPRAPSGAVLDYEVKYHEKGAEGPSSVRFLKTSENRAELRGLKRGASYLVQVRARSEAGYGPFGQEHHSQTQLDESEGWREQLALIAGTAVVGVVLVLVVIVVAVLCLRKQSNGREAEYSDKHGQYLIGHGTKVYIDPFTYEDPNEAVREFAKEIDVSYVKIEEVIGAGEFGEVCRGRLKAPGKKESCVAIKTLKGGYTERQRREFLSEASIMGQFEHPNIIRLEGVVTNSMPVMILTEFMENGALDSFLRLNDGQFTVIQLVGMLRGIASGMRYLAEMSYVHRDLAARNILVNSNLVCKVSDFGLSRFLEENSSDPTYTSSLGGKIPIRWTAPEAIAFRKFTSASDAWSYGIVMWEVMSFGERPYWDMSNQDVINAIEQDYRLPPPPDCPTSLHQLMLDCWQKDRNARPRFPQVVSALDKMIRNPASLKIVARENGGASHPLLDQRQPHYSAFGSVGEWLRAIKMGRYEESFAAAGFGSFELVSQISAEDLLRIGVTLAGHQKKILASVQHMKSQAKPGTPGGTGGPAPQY

NEK1 (human) = NEK1 (human) (UniProt Q96PY6)
[16] = tested on: KIT (human), P10721 [D816H]
[17] = tested on: KIT (human), P10721 [D816V]
[18] = tested on: ABL1 (human), P00519 [Y253F]
[19] = tested on: PIK3CA (human), P42336 [E545A]
CSF1R (human) = CSF1R (human) (UniProt P07333)
[20] = tested on: KIT (human), P10721 [A829P]
[21] = tested on: PIK3CA (human), P42336 [M1043I]
[22] = tested on: PIK3CA (human), P42336 [E542K]
MAPK15 (human) = MAPK15 (human) (UniProt Q8TD08)
[23] = tested on: EGFR (human), P00533 [T790M/L858R]

Sequence of MARK3 (human) (P27448 whole entry, looked up): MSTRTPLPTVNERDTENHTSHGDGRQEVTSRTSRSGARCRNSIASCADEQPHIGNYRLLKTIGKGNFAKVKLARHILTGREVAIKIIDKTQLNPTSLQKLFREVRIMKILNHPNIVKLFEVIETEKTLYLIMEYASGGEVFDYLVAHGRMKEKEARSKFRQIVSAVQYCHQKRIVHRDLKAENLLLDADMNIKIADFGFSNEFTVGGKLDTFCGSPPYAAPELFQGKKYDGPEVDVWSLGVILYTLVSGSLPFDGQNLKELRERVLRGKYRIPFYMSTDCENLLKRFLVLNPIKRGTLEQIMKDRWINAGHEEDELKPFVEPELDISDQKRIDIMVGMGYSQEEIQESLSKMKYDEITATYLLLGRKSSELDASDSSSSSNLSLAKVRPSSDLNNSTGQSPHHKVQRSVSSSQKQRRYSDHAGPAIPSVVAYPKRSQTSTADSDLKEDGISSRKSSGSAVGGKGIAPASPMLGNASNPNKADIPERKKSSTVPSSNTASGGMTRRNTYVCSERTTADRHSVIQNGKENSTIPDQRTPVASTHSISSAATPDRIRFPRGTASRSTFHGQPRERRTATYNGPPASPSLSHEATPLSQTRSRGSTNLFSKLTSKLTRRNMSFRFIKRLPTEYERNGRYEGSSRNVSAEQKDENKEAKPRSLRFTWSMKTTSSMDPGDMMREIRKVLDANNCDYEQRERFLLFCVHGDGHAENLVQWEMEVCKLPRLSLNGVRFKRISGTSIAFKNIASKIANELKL
Sequence of MAPKAPK5 (human) (Q8IW41 whole entry, looked up): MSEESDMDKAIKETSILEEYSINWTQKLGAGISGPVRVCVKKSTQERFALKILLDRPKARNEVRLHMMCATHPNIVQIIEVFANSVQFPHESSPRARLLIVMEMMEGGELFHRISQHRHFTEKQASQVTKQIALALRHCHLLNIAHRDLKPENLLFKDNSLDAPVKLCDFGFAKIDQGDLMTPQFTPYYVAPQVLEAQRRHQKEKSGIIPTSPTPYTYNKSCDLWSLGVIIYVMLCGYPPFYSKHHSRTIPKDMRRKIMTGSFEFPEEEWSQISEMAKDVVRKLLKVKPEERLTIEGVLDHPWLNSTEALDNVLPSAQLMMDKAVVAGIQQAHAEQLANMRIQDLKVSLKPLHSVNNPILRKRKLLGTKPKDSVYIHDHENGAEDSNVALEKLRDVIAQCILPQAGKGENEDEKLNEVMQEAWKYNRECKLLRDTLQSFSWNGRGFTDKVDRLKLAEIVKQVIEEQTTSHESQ
Sequence of EPHB1 (human) (P54762 whole entry, looked up): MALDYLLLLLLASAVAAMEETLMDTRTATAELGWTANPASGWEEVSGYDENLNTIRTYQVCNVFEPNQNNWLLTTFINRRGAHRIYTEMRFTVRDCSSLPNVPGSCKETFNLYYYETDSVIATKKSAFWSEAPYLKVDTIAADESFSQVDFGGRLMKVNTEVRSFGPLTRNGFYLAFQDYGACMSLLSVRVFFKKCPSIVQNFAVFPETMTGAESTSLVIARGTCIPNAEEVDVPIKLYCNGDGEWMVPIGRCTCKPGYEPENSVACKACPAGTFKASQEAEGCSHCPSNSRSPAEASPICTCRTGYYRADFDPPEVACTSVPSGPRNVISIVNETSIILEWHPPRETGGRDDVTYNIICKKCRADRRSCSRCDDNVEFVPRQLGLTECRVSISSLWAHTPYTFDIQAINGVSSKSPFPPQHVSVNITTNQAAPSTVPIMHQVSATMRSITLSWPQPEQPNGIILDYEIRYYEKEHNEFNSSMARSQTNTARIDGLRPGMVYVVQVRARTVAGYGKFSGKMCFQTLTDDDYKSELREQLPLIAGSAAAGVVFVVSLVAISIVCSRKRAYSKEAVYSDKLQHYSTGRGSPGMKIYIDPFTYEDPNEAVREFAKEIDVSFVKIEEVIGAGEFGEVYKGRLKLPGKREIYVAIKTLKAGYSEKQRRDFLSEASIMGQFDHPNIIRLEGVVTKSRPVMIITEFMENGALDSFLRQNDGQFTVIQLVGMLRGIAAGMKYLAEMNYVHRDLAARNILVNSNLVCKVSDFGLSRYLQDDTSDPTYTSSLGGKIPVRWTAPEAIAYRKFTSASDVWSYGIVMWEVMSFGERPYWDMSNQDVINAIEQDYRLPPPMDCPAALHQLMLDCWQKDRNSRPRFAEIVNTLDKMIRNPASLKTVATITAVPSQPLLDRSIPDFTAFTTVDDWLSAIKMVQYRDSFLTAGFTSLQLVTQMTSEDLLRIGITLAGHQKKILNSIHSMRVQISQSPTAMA
Sequence of NEK7 (human) (Q8TDX7 whole entry, looked up): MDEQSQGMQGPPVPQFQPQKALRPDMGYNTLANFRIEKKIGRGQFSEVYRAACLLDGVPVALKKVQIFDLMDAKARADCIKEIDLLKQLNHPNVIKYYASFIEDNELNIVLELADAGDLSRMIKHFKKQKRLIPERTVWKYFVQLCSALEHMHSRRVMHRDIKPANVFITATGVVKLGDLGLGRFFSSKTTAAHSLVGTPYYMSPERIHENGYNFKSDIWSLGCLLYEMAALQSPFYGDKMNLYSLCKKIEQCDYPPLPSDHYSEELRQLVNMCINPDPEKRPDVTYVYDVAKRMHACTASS

CNC(=O)c1cc(Oc2ccc(NC(=O)Nc3ccc(Cl)c(C(F)(F)F)c3)cc2)ccn1
per cent of control (NEK7 (human)): 100%
per cent of control (EPHB1 (human)): 18%
per cent of control (MARK3 (human)): 86%
per cent of control (MAPKAPK5 (human)): 100%

CNC(=O)c1cc(Oc2ccc(NC(=O)Nc3ccc(Cl)c(C(F)(F)F)c3)cc2)cc[n+]1[O-]
per cent of control [1]: 96%
per cent of control [2]: 74%
per cent of control (RPS6KA5 KD2 (human)): 81%
per cent of control [3]: 100%
per cent of control (NEK7 (human)): 100%
per cent of control [4]: 88%
per cent of control [5]: 100%
per cent of control (PIK3CA (human)): 95%
per cent of control [6]: 100%
per cent of control (EPHB1 (human)): 20%
per cent of control (KDR (human)): 0.4%
per cent of control (SRC (human)): 53%
per cent of control [7]: 100%
per cent of control [8]: 77%
per cent of control [9]: 38%
per cent of control [10]: 80%
per cent of control [11]: 84%
per cent of control (FRK (human)): 1.8%
per cent of control [12]: 76%
per cent of control (HIPK2 (human)): 20%
per cent of control (NTRK3 (human)): 0.35%
per cent of control [13]: 40%
per cent of control [14]: 100%
per cent of control (MYLK3 (human)): 2.8%
per cent of control (CLK2 (human)): 80%
per cent of control (PAK2 (human)): 93%
per cent of control [15]: 21%
per cent of control (EPHB4 (human)): 16%
per cent of control (NEK1 (human)): 84%
per cent of control [16]: 17%
per cent of control [17]: 2.6%
per cent of control [18]: 30%
per cent of control [19]: 100%
per cent of control (MARK3 (human)): 86%
per cent of control (CSF1R (human)): 0%
per cent of control [20]: 26%
per cent of control [21]: 83%
per cent of control (MAPKAPK5 (human)): 100%
per cent of control [22]: 100%
per cent of control (MAPK15 (human)): 0.6%
per cent of control [23]: 82%
